Values joined by “and” are separate entries in the source; they are usually repeats but may differ in a detail not shown here. Equal values may be shown once. “Also recorded” adds a separate entry of the source. Read-outs that look alike come from different tables or passages of the source. Blank lines part the entries; values can stand above or below the compound they belong to.
Tests used:
Assay type in all cases: physicochemical
[1] = Drug solubilization by salt formation in acid; conditions: HPLC, two peaks observed
Description: The base form of each drug was suspended in deionized water and titrated with 0.1 N hydrochloric acid (Fisher Scientific, Hampton, NH) while stirring until all the base was solubilized and the volume adjusted to a final concentration of 2.5 mg/mL. The resulting solution was frozen, then lyophilized to yield solid drug-hydrochloride salt or used in its solubilized form for loading into DC Bead LUMI. […] Doxorubicin.HCl was readily solubilized and used without modification. […] A ZORBAX Eclipse Plus C8 reversed-phase column (Agilent) and UV detector at wavelength of 230 nm were used for GS-9620 analysis. The decomposition product of GS-9620 was analyzed with reversed phase high-performance liquid chromatography (Rp-HPLC) and LC/MS.

[2] = Drug release from DC Bead LUMI in saline; conditions: for release in saline from DC Bead LUMI after multiple washes in deionized water: single replicates
Description: […] Briefly, drug-loaded DC Bead LUMI or LC Bead (62.5 µL) were placed in vessels with 50 mL of saline ([…], pH 7.4) and were agitated with upright rocking motion at a set maximum rocking speed of 10 (70 rpm) for 144 h at 37 °C using Ward's® Rotating Mixer. At scheduled time intervals identical to the loading time points, 1 mL of release media was withdrawn and used for drug quantification. To maintain 50 mL total elution volume, 1 mL of fresh saline pre heated to 37 °C was replaced at each timepoint. […] 2.4. The cumulative amount of drug released at each time point was calculated by multiplying the concentration of each sample aliquot by the total volume (50 mL) of release media and adding the sum of the amount of drug removed for sampling at prior time points. […] The 50 mL volume was chosen to ensure infinite sink conditions where the maximum possible concentration of eluted drug would be at least 10 times more dilute than the maximum solubility. This ensures the rate of release is not affected by solution concentration but is only a function of interactions of the bead, drug, and saline.

[3] = Washing of drug-loaded beads with deionized water and microscopic appearance
Description: (§1) Drug loading was performed in triplicate as previously reported[45] with slight modifications. […] Washing of beads is often a critical step in drug release studies as any drug left unbound to the beads affects the release profile and exaggerates the early burst release. […] However, washing was discontinued for TLR drugs as drug was continually observed even after multiple washes. […] The amount of drug loaded at the specified time points was calculated by subtracting the amount of drug remaining from the initial amount of drug in the loading solution and the cumulative amount of drug withdrawn for sampling. The maximum drug loaded in the beads was calculated once no further change in the concentration in the loading solution could be measured and before washing the beads. The relative percent drug loaded was defined as the maximum amount of drug loaded as a percent of the amount of SO3^- ions available in the beads on a molar basis using the following formula and the results are presented as the mean ± SD.

[4] = Drug loading into DC Bead LUMI
Description: as §1, with “DC Bead LUMI was analyzed for its elemental composition by MEDAC Inc. […] Drug” for “Drug”

[5] = pKa measurement by triple titration in methanol–water co-solvent with Yasuda-Shedlovsky extrapolation; conditions: for pKa: methanol–water co-solvent, aqueous value by Yasuda-Shedlovsky extrapolation; for psKa1 / psKa2: methanol–water
Description: pKa measurements were performed by Pion Inc, UK Ltd using known methods as previously reported[47]–[50] or calculated by using software MoKa (Molecular Discovery, Borehamwood, Hertfordshire, UK, https://www.moldiscovery.com/software/moka/#references) or directly obtained from the literature. For GARD and DSR 6434, a triple titration was carried out under methanol–water co-solvent conditions from pH 2.0–12.0 at concentrations of 2.3–1.3 mM (the methanol mixing ratio varied from 49.0 to 28.9% w/w) and 1.5–0.9 mM (the methanol mixing ratio varied from 49.6 to 29.1% w/w), respectively.

SMILES: CCCCOc1nc(N)c2c(n1)N(Cc1cccc(CN3CCCC3)c1)CC(=O)N2 [GS-9620]
stability in the solubilizing conditions [1]: partially decomposed; also recorded: not stable

release behaviour in saline ([2]; DC Bead LUMI): rapid release | removal of drug from beads by repeated washing with deionized water ([3]; DC Bead LUMI): partially removed | aggregation of drug during washing / elution ([3]; deionized water and saline, microscopy): absence of aggregated | Relative percent drug loaded in DC Bead LUMI over time ([4]; 5 min, single replicates): 55.2766% and 60.9514% and 46.1831% | Relative percent drug loaded in DC Bead LUMI over time ([4]; 15 min, single replicates): 43.0802% and 66.0616% and 55.143% | Relative percent drug loaded in DC Bead LUMI over time ([4]; 30 min, single replicates): 48.003% and 64.9413% and 48.1153% | Relative percent drug loaded in DC Bead LUMI over time ([4]; 45 min, single replicates): 42.5221% and 54.7578% and 59.077% | Relative percent drug loaded in DC Bead LUMI over time ([4]; 60 min, single replicates): 49.9393% and 67.8727% and 53.1769% | Relative percent drug loaded in DC Bead LUMI over time ([4]; 120 min, single replicates): 71.3739% and 70.6276% and 67.3547% | Relative percent drug loaded in DC Bead LUMI over time ([4]; 180 min, single replicates): 60.3259% and 72.9711% and 72.9791% | Relative percent drug loaded in DC Bead LUMI over time ([4]; 240 min, single replicates): 61.2934% and 72.504% and 74.4803% | Relative percent drug loaded in DC Bead LUMI over time ([4]; 300 min, single replicates): 61.9583% and 65.0576% and 73.7822% | Relative percent drug loaded in DC Bead LUMI over time ([4]; 360 min, single replicates): 62.1239% and 73.4051% and 73.7491% | Relative percent drug loaded in DC Bead LUMI over time ([4]; 420 min, single replicates): 57.6019% and 70.5665% and 69.0951% | Relative percent drug loaded in DC Bead LUMI over time ([4]; 480 min, single replicates): 60.233% and 70.8296% and 71.2658% | Relative percent drug loaded in DC Bead LUMI over time ([4]; 1440 min, single replicates): 61.7405% and 70.3053% and 72.3473% | Relative percent drug loaded in DC Bead LUMI over time ([4]; 2880 min, single replicates): 58.2466% and 69.7502% and 67.5798% | Relative percent drug loaded in DC Bead LUMI over time ([4]; 4320 min, single replicates): 62.5088% and 74.175% and 74.3147% | Relative percent drug loaded in DC Bead LUMI over time ([4]; 8640 min, single replicates): 62.7357% and 73.7536% and 73.1477% | loading behaviour ([4]; DC Bead LUMI): Fast loading | Relative percent drug loaded (maximum, percent of SO3− available on a molar basis) ([4]; DC Bead LUMI, mean (n = 3)): 73% and 73.34% | equivalent of drug loaded to sulfonated bead ([4]; DC Bead LUMI, mean ± SD): 0.21 ± 0.00 mM drug/ml beads | Maximum drug loaded ([4]; DC Bead LUMI, mean ± SD, n = 3, base form except Dox (salt form)): 65.97 ± 1.54 mg drug/ml beads | Maximum drug loaded (Triplicate), % ([4]; DC Bead LUMI, single replicates): 71.3739% and 74.175% and 74.4803% | Drug: sulfonate ([4]; molar ratio at maximum loading, DC Bead LUMI): 0.733 | Theoretical maximum loading level based on SO3− contents ([4]; per mL DC Bead LUMI, assuming 1:1 drug to sulfonate): 89.95 mg | pKa ([5]; read-out: pKa (first, measured)): 7.02 | pKa ([5]; read-out: pKa (second, measured)): 8.02 | psKa1 ([5]; dielectric constant 56.8): 6.81 | psKa2 ([5]; dielectric constant 56.8): 7.83 | psKa1 ([5]; dielectric constant 61.6): 6.89 | psKa2 ([5]; dielectric constant 61.6): 7.88 | psKa1 ([5]; dielectric constant 66): 6.92 | psKa2 ([5]; dielectric constant 66): 7.94
SMILES: CCNCc1nc2c(N)nc3ccccc3c2n1CC(C)(C)O [GARD, gardiquimod]
release in saline from DC Bead LUMI after multiple washes in deionized water ([2]; 5 min): 13.8548 mg/mL of beads and 16.8316 mg/mL of beads and 16.696 mg/mL of beads | release in saline from DC Bead LUMI after multiple washes in deionized water ([2]; 15 min): 6.978 mg/mL of beads and 10.4756 mg/mL of beads and 7.4826 mg/mL of beads | release in saline from DC Bead LUMI after multiple washes in deionized water ([2]; 30 min): 11.5876 mg/mL of beads and 14.6655 mg/mL of beads and 10.6769 mg/mL of beads | release in saline from DC Bead LUMI after multiple washes in deionized water ([2]; 45 min): 12.1501 mg/mL of beads and 14.1614 mg/mL of beads and 16.9158 mg/mL of beads | release in saline from DC Bead LUMI after multiple washes in deionized water ([2]; 60 min): 12.3872 mg/mL of beads and 11.2006 mg/mL of beads and 10.7852 mg/mL of beads | release in saline from DC Bead LUMI after multiple washes in deionized water ([2]; 120 min): 6.495 mg/mL of beads and 18.2582 mg/mL of beads and 8.614 mg/mL of beads | release in saline from DC Bead LUMI after multiple washes in deionized water ([2]; 180 min): 13.4173 mg/mL of beads and 9.599 mg/mL of beads and 8.837 mg/mL of beads | release in saline from DC Bead LUMI after multiple washes in deionized water ([2]; 240 min): 11.2341 mg/mL of beads and 19.3333 mg/mL of beads and 19.2869 mg/mL of beads | release in saline from DC Bead LUMI after multiple washes in deionized water ([2]; 300 min): 11.4298 mg/mL of beads and 19.0264 mg/mL of beads and 20.0563 mg/mL of beads | release in saline from DC Bead LUMI after multiple washes in deionized water ([2]; 360 min): 14.8464 mg/mL of beads and 16.7671 mg/mL of beads and 17.7148 mg/mL of beads | release in saline from DC Bead LUMI after multiple washes in deionized water ([2]; 420 min): 10.7872 mg/mL of beads and 18.9583 mg/mL of beads and 16.16 mg/mL of beads | release in saline from DC Bead LUMI after multiple washes in deionized water ([2]; 480 min): 14.0597 mg/mL of beads and 15.9257 mg/mL of beads and 20.8469 mg/mL of beads | release in saline from DC Bead LUMI after multiple washes in deionized water ([2]; 1440 min): 16.384 mg/mL of beads and 22.102 mg/mL of beads and 14.1626 mg/mL of beads | release in saline from DC Bead LUMI after multiple washes in deionized water ([2]; 2880 min): 17.882 mg/mL of beads and 19.297 mg/mL of beads and 22.6822 mg/mL of beads | release in saline from DC Bead LUMI after multiple washes in deionized water ([2]; 4320 min): 17.16 mg/mL of beads and 21.3309 mg/mL of beads and 22.7224 mg/mL of beads | release in saline from DC Bead LUMI after multiple washes in deionized water ([2]; 8640 min): 16.9125 mg/mL of beads and 21.9345 mg/mL of beads and 17.7447 mg/mL of beads

From paper PMC9763333, “In vitro characterization of immune modulating drug-eluting immunobeads towards transarterial embolization in cancer” (Scientific Reports, 2022)
